Measured values as given in the supplement of paper PMC12463676, “Small-molecule dissolution of stress granules by redox modulation benefits ALS models” (Nature Chemical Biology, 2025).

Legend:
lipoamide = compound: NC(=O)CCCCC1CCSS1 [lipoamide]; assay: thermal stability z-score vs DMSO; higher = more thermally stabilized by treatment; settings: HeLa, lipoamide concentration 100 µM
Experimental: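 Cellular thermal proteome profiling in HeLa cells. Cells were treated with 100 µM lipoamide for 1 h, with or without 1 mM arsenate for a further 1 h, then heated to ten temperatures (37-66.3 °C), and soluble protein was quantified by TMT mass spectrometry relative to 0.1% DMSO controls. The thermal stability score (sum of log2 fold changes minus the abundance score) was transformed to a z-score; mean of n = 3 experiments.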

potassium arsenate = compound: O=[As]([O-])(O)O.[K+] [potassium arsenate]; assay: as above; settings: HeLa; arsenate concentration 1 mM
Experimental: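 Cellular thermal proteome profiling in HeLa cells treated with 1 mM arsenate for 1 h (DMSO pretreatment), heated to ten temperatures (37-66.3 °C). Soluble protein was quantified by TMT mass spectrometry relative to DMSO controls; the thermal stability score was transformed to a z-score; mean of n = 3 experiments.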

[1] = arsenate co-treatment: 1 mM arsenate 1 h
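Further: each temperature applied for 3 min, abundance score taken as mean log2 fold change at the two lowest temperatures, z-score obtained by mean subtraction and division by SD.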

UniProt Q9NPI1, sequence (Q9NPI1 whole entry): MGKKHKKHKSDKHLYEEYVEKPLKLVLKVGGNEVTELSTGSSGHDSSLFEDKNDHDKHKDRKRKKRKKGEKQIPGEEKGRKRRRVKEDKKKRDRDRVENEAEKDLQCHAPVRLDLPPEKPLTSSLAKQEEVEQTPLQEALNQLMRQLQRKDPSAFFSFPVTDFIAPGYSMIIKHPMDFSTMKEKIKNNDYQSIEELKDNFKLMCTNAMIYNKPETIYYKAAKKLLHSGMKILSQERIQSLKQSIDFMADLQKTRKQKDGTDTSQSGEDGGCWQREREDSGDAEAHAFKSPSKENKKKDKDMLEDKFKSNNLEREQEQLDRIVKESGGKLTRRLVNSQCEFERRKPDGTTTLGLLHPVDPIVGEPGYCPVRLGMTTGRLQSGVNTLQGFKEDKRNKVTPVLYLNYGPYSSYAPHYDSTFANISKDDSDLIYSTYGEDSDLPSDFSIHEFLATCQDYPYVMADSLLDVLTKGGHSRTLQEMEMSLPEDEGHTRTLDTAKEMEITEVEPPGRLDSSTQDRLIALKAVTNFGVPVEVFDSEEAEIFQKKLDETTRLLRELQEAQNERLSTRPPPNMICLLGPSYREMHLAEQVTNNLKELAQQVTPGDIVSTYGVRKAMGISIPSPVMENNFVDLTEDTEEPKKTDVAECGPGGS
UniProt Q9H0X9, sequence (Q9H0X9 whole entry): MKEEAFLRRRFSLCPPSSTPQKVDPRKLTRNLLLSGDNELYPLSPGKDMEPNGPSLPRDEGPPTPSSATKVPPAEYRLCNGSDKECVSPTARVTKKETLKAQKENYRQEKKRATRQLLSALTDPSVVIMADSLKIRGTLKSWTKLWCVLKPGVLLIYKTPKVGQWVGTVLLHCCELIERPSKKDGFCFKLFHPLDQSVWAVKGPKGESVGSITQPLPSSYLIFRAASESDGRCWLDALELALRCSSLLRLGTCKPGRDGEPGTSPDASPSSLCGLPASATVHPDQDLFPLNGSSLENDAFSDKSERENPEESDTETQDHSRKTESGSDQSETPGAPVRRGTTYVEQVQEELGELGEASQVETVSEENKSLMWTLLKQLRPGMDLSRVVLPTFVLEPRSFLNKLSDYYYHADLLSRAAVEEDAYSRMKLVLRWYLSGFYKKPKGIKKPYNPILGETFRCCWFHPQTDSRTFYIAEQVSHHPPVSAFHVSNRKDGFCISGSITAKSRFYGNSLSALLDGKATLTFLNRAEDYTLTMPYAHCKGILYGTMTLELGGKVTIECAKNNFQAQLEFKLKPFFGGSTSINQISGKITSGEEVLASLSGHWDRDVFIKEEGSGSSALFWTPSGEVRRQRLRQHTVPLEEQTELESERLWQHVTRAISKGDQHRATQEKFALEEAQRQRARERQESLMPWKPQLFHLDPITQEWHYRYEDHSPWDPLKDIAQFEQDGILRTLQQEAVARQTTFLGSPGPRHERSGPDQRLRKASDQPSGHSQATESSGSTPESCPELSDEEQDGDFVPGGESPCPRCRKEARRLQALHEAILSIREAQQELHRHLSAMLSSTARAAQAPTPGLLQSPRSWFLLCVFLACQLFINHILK
UniProt Q9HAB3, sequence (Q9HAB3 whole entry): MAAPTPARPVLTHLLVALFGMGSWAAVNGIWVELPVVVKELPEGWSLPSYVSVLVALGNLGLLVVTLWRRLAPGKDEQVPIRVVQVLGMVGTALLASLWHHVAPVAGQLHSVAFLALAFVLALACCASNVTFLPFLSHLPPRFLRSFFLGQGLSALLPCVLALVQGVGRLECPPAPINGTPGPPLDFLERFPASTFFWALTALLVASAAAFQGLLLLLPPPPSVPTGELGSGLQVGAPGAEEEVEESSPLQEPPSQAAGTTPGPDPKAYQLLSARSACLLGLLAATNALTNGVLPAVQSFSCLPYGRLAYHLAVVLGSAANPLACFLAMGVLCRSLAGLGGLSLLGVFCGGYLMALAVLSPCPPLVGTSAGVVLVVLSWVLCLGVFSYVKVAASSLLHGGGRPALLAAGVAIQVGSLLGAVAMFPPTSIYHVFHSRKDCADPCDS
UniProt P35606, sequence (P35606 whole entry): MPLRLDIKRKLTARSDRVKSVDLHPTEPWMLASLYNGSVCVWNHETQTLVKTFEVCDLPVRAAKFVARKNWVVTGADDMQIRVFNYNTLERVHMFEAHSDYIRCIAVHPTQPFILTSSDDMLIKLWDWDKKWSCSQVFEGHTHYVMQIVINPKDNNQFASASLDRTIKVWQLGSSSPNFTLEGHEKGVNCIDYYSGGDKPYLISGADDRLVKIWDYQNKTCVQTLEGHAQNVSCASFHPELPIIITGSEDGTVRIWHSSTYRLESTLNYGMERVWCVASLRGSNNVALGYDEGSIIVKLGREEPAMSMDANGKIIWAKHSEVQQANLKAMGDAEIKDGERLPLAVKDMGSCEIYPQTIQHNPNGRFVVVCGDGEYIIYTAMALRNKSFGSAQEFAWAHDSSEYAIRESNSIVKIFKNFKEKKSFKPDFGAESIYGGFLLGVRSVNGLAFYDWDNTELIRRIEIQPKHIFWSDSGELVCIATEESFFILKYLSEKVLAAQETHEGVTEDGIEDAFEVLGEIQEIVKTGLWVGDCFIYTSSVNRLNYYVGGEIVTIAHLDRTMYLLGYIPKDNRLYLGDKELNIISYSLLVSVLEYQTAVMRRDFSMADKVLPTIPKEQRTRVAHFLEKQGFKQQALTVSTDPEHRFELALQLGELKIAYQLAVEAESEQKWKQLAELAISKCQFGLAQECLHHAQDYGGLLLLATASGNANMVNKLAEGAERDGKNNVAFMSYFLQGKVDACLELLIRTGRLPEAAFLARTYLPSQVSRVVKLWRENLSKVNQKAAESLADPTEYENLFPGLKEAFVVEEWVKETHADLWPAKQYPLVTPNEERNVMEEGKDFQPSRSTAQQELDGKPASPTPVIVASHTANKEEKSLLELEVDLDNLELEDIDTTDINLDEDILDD
UniProt Q2TAA2, sequence (Q2TAA2 whole entry): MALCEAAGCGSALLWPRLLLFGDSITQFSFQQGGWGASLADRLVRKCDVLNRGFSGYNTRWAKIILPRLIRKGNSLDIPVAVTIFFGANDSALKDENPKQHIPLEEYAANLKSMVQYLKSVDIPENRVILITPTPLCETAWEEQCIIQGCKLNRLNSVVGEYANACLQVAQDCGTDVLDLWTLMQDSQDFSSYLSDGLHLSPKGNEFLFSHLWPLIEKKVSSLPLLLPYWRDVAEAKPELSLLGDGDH
UniProt Q86X55, sequence (Q86X55 whole entry): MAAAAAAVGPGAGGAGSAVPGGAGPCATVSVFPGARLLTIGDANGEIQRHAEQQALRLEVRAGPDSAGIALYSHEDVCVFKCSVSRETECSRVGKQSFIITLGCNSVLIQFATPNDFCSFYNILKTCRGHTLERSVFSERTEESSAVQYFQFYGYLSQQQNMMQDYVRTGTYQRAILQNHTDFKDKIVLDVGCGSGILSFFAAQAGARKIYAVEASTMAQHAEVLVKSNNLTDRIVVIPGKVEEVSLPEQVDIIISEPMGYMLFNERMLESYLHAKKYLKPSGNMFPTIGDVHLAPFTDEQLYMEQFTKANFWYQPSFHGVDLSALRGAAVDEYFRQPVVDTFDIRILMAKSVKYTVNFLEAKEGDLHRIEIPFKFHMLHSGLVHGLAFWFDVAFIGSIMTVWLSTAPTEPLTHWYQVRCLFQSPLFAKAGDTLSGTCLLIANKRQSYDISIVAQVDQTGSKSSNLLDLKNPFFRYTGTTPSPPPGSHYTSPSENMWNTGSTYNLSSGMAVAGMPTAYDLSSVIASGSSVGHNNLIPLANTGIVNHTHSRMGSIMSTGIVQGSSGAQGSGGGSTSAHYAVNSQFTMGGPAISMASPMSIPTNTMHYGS
UniProt Q6DD87, sequence (Q6DD87 whole entry): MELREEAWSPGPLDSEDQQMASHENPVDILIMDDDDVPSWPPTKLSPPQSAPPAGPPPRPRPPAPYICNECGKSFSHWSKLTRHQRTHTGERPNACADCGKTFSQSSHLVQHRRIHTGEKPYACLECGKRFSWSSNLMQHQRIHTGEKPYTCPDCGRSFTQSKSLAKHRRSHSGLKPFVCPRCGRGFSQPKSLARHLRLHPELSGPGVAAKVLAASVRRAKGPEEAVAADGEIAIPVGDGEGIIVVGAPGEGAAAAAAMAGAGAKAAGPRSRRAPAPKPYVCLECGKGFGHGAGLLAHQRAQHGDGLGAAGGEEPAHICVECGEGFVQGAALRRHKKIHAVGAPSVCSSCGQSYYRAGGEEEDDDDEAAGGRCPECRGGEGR
UniProt O95298, sequence (O95298 whole entry): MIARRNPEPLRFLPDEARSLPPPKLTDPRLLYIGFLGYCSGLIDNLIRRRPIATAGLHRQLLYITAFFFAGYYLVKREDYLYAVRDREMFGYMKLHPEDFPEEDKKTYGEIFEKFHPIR
UniProt Q9Y5K8, sequence (Q9Y5K8 whole entry): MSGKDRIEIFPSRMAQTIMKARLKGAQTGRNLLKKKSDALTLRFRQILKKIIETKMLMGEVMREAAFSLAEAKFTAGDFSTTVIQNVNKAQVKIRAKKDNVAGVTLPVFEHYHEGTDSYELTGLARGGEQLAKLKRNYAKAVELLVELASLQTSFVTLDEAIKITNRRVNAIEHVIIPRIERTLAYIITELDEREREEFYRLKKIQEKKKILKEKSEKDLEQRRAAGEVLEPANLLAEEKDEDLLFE
UniProt Q9BRP1, sequence (Q9BRP1 whole entry): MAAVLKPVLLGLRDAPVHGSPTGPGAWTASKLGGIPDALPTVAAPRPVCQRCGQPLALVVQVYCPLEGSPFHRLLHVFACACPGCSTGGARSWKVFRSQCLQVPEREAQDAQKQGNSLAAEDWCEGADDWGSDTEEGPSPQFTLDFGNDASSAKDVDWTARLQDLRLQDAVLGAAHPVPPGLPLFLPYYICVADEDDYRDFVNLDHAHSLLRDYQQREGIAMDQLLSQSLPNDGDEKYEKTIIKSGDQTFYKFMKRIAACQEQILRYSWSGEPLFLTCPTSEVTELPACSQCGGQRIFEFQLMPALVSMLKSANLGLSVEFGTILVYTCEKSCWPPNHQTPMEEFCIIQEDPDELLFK
UniProt Q9UBI6, sequence (Q9UBI6 whole entry): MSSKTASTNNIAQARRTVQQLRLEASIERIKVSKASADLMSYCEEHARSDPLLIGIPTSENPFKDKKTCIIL

Target | thermal stability z-score (lipoamide; [1]) | thermal stability z-score (lipoamide; arsenate co-treatment: none) | thermal stability z-score (potassium arsenate)
CRK (UniProt P46108) | 0.951 | 0.233 | 1.2
MED17 (UniProt Q9NVC6) | 0.255 | -0.466 | -0.697
CAMK1D (UniProt Q8IU85) | -0.513 | -0.221 | 0.553
CDC23 (UniProt Q9UJX2) | -0.546 | -0.315 | -0.726
ANKRD13A (UniProt Q8IZ07) | 0.0649 | -0.0472 | -0.0666
COPB2 (UniProt P35606) | 0.165 | -0.0303 | 0.238
ZC3H12A (UniProt Q5D1E8) | 0.0783 | -0.187 | -0.189
TOB1 (UniProt P50616) | -1.37 | -0.305 | 0.159
ATP6V1D (UniProt Q9Y5K8) | 0.546 | 0.0685 | -0.425
VWA9 (UniProt Q96SY0) | 0.159 | 0.404 | -0.114
SLC52A2 (UniProt Q9HAB3) | 0.194 | 0.164 | -0.17
ATE1 (UniProt O95260) | 0.315 | -0.209 | -2.08
EIF4G1 (UniProt Q04637) | -0.164 | -0.0562 | -0.0263
MTMR14 (UniProt Q8NCE2) | -1.39 | -0.656 | -0.829
GALNT10 (UniProt Q86SR1) | -0.462 | 0.0888 | 0.557
PTPMT1 (UniProt Q8WUK0) | 0.619 | 0.326 | 0.767
NDUFC2 (UniProt O95298) | 1.34 | 0.996 | 2.15
BRD7 (UniProt Q9NPI1) | -0.355 | -0.169 | -0.517
PDZD8 (UniProt Q8NEN9) | -0.155 | 0.291 | 0.123
PDCD2L (UniProt Q9BRP1) | 0.275 | 0.139 | -0.161
ITGA2 (UniProt P17301) | 0.217 | 0.235 | 0.278
BCCIP (UniProt Q9P287) | 0.431 | -0.061 | -0.181
TMF1 (UniProt P82094) | -0.551 | -0.475 | -0.126
EMC3 (UniProt Q9P0I2) | -0.0707 | -0.245 | -0.133

Target | thermal stability z-score (lipoamide; [1]) | thermal stability z-score (lipoamide; arsenate co-treatment: none) | thermal stability z-score (potassium arsenate)
C1QBP (UniProt Q07021) | -0.549 | 0.0636 | -1.28
OSBPL5 (UniProt Q9H0X9) | -0.28 | -0.534 | -0.386
RRP1 (UniProt P56182) | 0.0258 | 0.131 | 0.671
COX7A2L (UniProt O14548) | 0.761 | 0.522 | -0.221
MTAP (UniProt Q13126) | 0.145 | -1.41 | -1.77
XRCC1 (UniProt P18887) | -0.0745 | 0.0492 | -0.417
IRF3 (UniProt Q14653) | 0.883 | -0.106 | 1.13
GPR126 (UniProt Q86SQ4) | -1.33 | -1.02 | -0.42
AKAP13 (UniProt Q12802) | -0.125 | -0.1 | 0.667
GPKOW (UniProt Q92917) | 0.182 | 0.0635 | -1.58
SCPEP1 (UniProt Q9HB40) | -0.372 | 0.187 | -0.196
PFKFB2 (UniProt O60825) | 0.137 | 0.1 | -0.631
HAGH (UniProt Q16775) | 0.41 | -0.0853 | 0.158
LONP2 (UniProt Q86WA8) | -0.55 | -0.13 | 0.393
ZNF787 (UniProt Q6DD87) | 0.853 | 1.17 | 0.223
PMPCB (UniProt O75439) | 0.254 | 0.207 | 0.353
ADK (UniProt P55263) | -0.131 | -0.279 | -1.35
TUSC1 (UniProt Q2TAM9) | 0.515 | 0.368 | 0.0895
GNG12 (UniProt Q9UBI6) | 1.21 | 1.3 | 0.329
GPALPP1 (UniProt Q8IXQ4) | -0.0123 | 0.162 | -0.865
UGDH (UniProt O60701) | -0.0997 | 0.267 | 1.03
VAMP8 (UniProt Q9BV40) | 1.3 | 1.28 | 0.587
GTF3C1 (UniProt Q12789) | 0.0666 | -0.0357 | -0.534
GYS1 (UniProt P13807) | 0.31 | 0.22 | 0.706

Target | thermal stability z-score (lipoamide; [1]) | thermal stability z-score (lipoamide; arsenate co-treatment: none) | thermal stability z-score (potassium arsenate)
WFS1 (UniProt O76024) | -0.47 | -0.487 | -0.022
SLC25A19 (UniProt Q9HC21) | -0.0932 | 0.281 | -0.374
TOMM70 (UniProt O94826) | -0.0648 | 0.115 | -0.0776
IAH1 (UniProt Q2TAA2) | 0.672 | 0.79 | -0.173
NOL6 (UniProt Q9H6R4) | 0.328 | -0.0357 | -0.592
SNX6 (UniProt Q9UNH7) | 0.175 | 0.276 | 0.277
GFPT2 (UniProt O94808) | 0.344 | -0.0258 | -0.593
TARBP1 (UniProt Q13395) | -0.285 | -0.136 | 0.121
PIGN (UniProt O95427) | 0.0724 | -0.0621 | 0.41
HSCB (UniProt Q8IWL3) | 0.0143 | 0.667 | 0.175
RALGPS2 (UniProt Q86X27) | -0.0453 | 0.191 | -0.177
IL1RAP (UniProt Q9NPH3) | -0.15 | -0.0435 | -0.164
CETN3 (UniProt O15182) | 1.25 | 1.49 | 1.71
MINPP1 (UniProt Q9UNW1) | -3.92 | -4.05 | -0.105
UniProt F8W031 | -3.73 | -2.58 | 0.325
CARM1 (UniProt Q86X55) | 0.99 | 0.944 | 0.086
SF3B4 (UniProt Q15427) | 0.152 | -0.211 | -0.243
USP34 (UniProt Q70CQ2) | 0.544 | 0.668 | -0.384
HMG20A (UniProt Q9NP66) | 0.359 | -0.371 | 0.344
ARPC3 (UniProt O15145) | 0.0284 | 0.0195 | -0.254
RPL30 (UniProt P62888) | 0.771 | 0.183 | -0.666
NCKIPSD (UniProt Q9NZQ3) | 0.127 | 0.0916 | 0.255
ZNF148 (UniProt Q9UQR1) | 0.37 | 0.389 | 0.415
